# Data published in publication PMC9705834, “Mitochondrial Targeting Domain Homologs Induce Necrotic Cell Death Via Mitochondrial and Endoplasmic Reticulum Disruption” (Journal of Microbiology and Biotechnology, 2021).
# What was measured:
# [1] = cited from earlier work
# Excerpt: Within few minutes after the treatment with the MTD peptide, intracellular calcium concentration increases, and extracellular calcium penetrates through the mitochondrial permeability transition (mPT) pore. With the formation of blebs, the calcium concentration decreases and mitochondrial reactive oxidative species (ROS) begin to increase. MTDs also induce mitochondrial swelling, fragmentation, and endopla ... || Bnip1 MTD-like motif (B1MLM), derived from another BH3-only protein, Bnip1, also induces cell death in the same manner. Bnip1 interacts with […] Bcl-2 family proteins and the adenoviral antiapoptotic protein, E1B 19 kDa. The BH3 domain of Bnip1 is closely involved in apoptosis and mitochondrial fission carried out by Drp1 [14]. B1MLM has a similar arrangement of leucine residues as that of MTD. […] Similar to MTD, B1MLM induces a sharp rise in ca ... || MTD and B1MLM peptides induce necrotic cell death when associated with R8. R8 is a well-known cell penetrating motif. […] To evaluate the cytotoxicity of MTD homologs, we synthesized these peptides and fused R8 at the N-terminus.
# HeLa cells = test: MTS assay of cell viability after peptide treatment; type: cell-based; conditions: HeLa cells at 90% confluency, peptide in phenol red-free DMEM for 1 h, absorbance 450 nm
# Protocol: HeLa cells were purchased from the Korean Cell Line Bank (Korea) and cultured in Dulbecco’s modified Eagle’s medium (DMEM) containing 10% fetal bovine serum and 1× penicillin-streptomycin (100 IU/ml and 100 μg/ml, Gibco-Thermo Fisher, USA) at 37°C in a humidified 5% CO2 atmosphere.
# HeLa cells were cultured in 96-well plates to 90% confluency and treated with peptides mixed in phenol red-free DMEM for 1 h. After incubation, MTS solution (20 μl, Promega, USA) was added and the absorbance of each well was measured at 450 nm.
# Fig. 1 Mitochondrial targeting domain (MTD) homologs induce necrotic cell death as in MTD. A. (Left panel) There are several mitochondrial targeting domain (MTD) homologs in human genes. They were searched by protein basic local alignment search tool (BLAST) on National Center for Biotechnology Information (NCBI) and sorted according to percent identity with MTD. Each amino acid was colored according to the ClustalX color scheme (hydrophobic, blue; positive charge, red; negative charge, magenta; polar, green; glycine, orange; proline, yellow; aromatic, cyan; cysteine, pink). (Right panel) The cytotoxicity of mitochondrial targeting domain (MTD) homologs is determined by its amino acid sequence. MTD homologs were grouped according to their cytotoxicity, then sorted according to percent identity with MTD. Each amino acid was colored according to the ClustalX color scheme (hydrophobic, blue; positive charge, red; negative charge, magenta; polar, green; glycine, orange; proline, yellow; aromatic, cyan; cysteine, pink). B. Cell viabilities were determined by MTS assay 1 h after treating HeLa cells with MTD homologs fused with octa-arginine (R8). HeLa cells treated with R8:M-LIPRIN, R8:MST3GAL3, R8:M-TRRAD, and R8:M-SDAD1(left panel). HeLa cells treated with eM-GAL3, R8:MGAL3, and R8:M-ST13 (right panel). C, HeLa cells treated with R8:M-SDAD1 (5 μM), R8:M-TRRAD (20 μM), and R8:M-ST3GAL3 (40 μM), then observed for 10 min using differential interference contrast microscopy. D, HeLa cells were treated with R8:M-SDAD1 (10 μM), R8:M-TRRAD (20 μM), and R8:M-ST3GAL3 (40 μM), with and without DIDS (200 μM); after 1 h, cell viability was determined by MTS assay. […]
# [2] = previous study; cited from earlier work
Sequence,cytotoxicity / cell viability as the concentration increased (Fig. 1B) (HeLa cells),other results
"KLLNLISKLF [MTD, mitochondrial targeting domain of Noxa, as a peptide without R8]",–,cell killing activity of MTD peptide without R8 ([1]; previous study): did not show any cell killing activity
"KLNFRQKLLNLISKLFCSGT [eMTD, extended MTD: MTD with its flanking region]",–,necrotic cell death ([1]; MTD with its flanking region): strongly induces necrotic cell death
"LLQYNHRVKKLNEISKLGISGDIDLTSASYTMI [eM-GAL3, M-GAL3 with a flanking region similar to that of eMTD, without R8]",hardly altered cell viability,–
"RRRRRRRREAKLLELTSKLRKA [R8:M-LIPRIN, MTD homolog found in LIPRIN, fused with R8 at the N-terminus]",hardly altered cell viability,–
RRRRRRRRKLLNLISKLF [R8:MTD],–,disruption of ER and mitochondria [2]: induced the disruption of ER and mitochondria
"RRRRRRRRNPKVMNLISKLSAK [R8:M-ST13, MTD homolog found in ST13, fused with R8 at the N-terminus]",hardly altered cell viability,–
"RRRRRRRRVKKLNEISKLGISG [R8:M-GAL3, MTD homolog found in GAL3, fused with R8 at the N-terminus]",hardly altered cell viability,–
